From patent US20220387544A1, “NOVEL THERAPEUTIC USE” (Artios Pharma Limited, priority 2019, published 2022)

How the values were obtained:
Assay type in all cases: cell-based
[1] = test system: CAL51 breast cancer cells; experiment: siRNA screen for Compound A sensitivity in CAL51
From the text: (§1) An siRNA library was purchased from Dharmacon. Each well contained a SMART pool of four distinct siRNA species targeting different sequences of the target transcript, as well as individual siRNA targeting components of the Shieldin complex. Each plate was supplemented with negative siCONTROL (12 wells; Dharmacon) and positive control (four wells, siPLK1, Dharmacon). RNAi screening conditions were optimized and raw CellTitre-Glo (Promega) luminescent viability readings were generated as previously described (Lord et al DNA Repair (2008) 7, 2010-2019). Compound A or vehicle (DMSO) was added 24 h after transfection at 5 μM (CAL51) or 10 μM (RPE TP53-/-BRCA1-defective) concentration in media and cells were exposed for 5 days. Statistical analysis of the siRNA screen was performed as described elsewhere (Lord et al DNA Repair (2008) 7, 2010-2019). In brief, luminescence values from CellTitre-Glo assays in Compound A and DMSO exposed cells were log2 transformed and then normalized to plate median (PM) effects. Drug Effect (DE) scores were calculated from PM normalized data using the equation: DE=(log2 PM normalized signal of siRNA in the presence of Compound A)—(log2 PM normalized signal of siRNA in the absence of Compound A). DE values were then Z-score standardized according to screen median and median absolute deviation values.
To discover genes that are synthetic lethal with Polθ inhibitors, an siRNA screen using 1280 siRNAs was performed using CAL51 breast cancer cells. The cells were transfected with siRNA SMARTPools in a 384 well plate arrayed format then, twenty-four hours later, exposed to either DMSO or Compound A. Cells were then continuously cultured in the presence of Compound A or DMSO for a further five days, at which point the viability of cells was measured using CellTitre-Glo reagent (a luminescence assay measuring cellular ATP levels). Luminescence values from each well of the 384 well plate were log2 transformed and then normalized to the median signal on each plate (to account for plate to plate variation). By comparing normalized values for each siRNA SMARTPool in DMSO and Compound A-exposed cells, the effect of each siRNA on Compound A sensitivity was calculated, being expressed as a Drug Effect (DE) Z score.

[2] = test system: RPE1 TP53-/-BRCA1-/-cells; experiment: siRNA screen for Compound A sensitivity in BRCA1 defective RPE1; details: for Drug Effect (DE) Z-score: BRCA1 defective RPE1
From the text: as §1
To discover genes that are synthetic lethal with Polθ inhibitor in cells lacking DSBR through homologous recombination, an siRNA screen using 1418 siRNAs was performed using BRCA1 defective RPE1 TP53-/-BRCA1-/-cells. The screen was performed and analysed as described in FIG. 8 for the CAL51 screen. REV7 and SHLD2 (FAM35A) were two of the top hits (FIG. 8(a)), confirming the link between SHLD component defects and Polθ inhibitor sensitivity.

[3] = test system: parental and REV7 KO 22Rv1 cells; experiment: Colony formation assay, 22Rv1; details: REV7 KO vs REV7 wild type parental 22Rv1 cells, 2 weeks
Protocol: (§2) 1 mL of cells were seeded per well in a 24-well plate in triplicate and incubated overnight at 37° C. Cells were treated with a seven-point dose response curve with a one-in-three serial dilution of compound for the timepoints listed in Table 5. For MDA-MB-436 cells media was replenished every five days.
(§3) Cells were fixed with 70% ethanol for 20 minutes at room temperature with shaking. Cells were then stained with 0.04% Crystal Violet (Sigma Aldrich) for 20 minutes at room temperature with shaking. Cells were washed 6 times with water and air-dried overnight.
(§4) Plates were imaged using a Gelcount (Oxford Optronix), and colonies were counted using parameters optimized for each cell line. 22Rv1 viability curves were generated from the colony counts alone. MDA-MB-436 and HCC1935 viability curves were generated from solubilized colonies. Colonies were solubilized using 10% acetic acid (VWR) for 30 minutes, absorbance at 595 nm was read using the Clariostar plate reader (BMG Labtech), and blank correction was applied. Relative Survival was calculated by normalization of compound treated wells to DMSO treated wells.
The effect of a DNA polymerase theta (Polθ) inhibitor (Compound A) or the PARP inhibitor olaparib on the survival of parental (REV7 wild type) or REV7 deleted (REV7 KO) 22Rv1 cells was investigated in colony formation assays (CFA—see protocol above). […]

[4] = test system: Parental and REV7 KO SUM149 cells; experiment: Clonogenic survival assay (ICR), SUM149 REV7 KO clones; details: REV7 KO clones vs parental SUM149, 14 days
Protocol: Clonogenic survival assays were performed as previously described (Edwards et al Nature (2008) 451, 1111-1115; Farmer et al Nature (2005) 434, 917-921). For measurement of sensitivity to Compound A inhibitor, exponentially growing cells were seeded in six-well plates at a concentration of 1000-2000 cells per well. For Compound A, cells were continuously exposed to the drug with media and drug replaced every 72 h. After 14 days, cells were fixed and stained with sulphorhodamine-B (Sigma) and colonies were counted. SFs were calculated and drug sensitivity curves plotted as previously described (Farmer et al Nature (2005) 434, 917-921).
Parental or REV7 KO SUM149 cells were seeded into 6 well plates and incubated overnight. The cells were then treated with a serial dilution of Polθ inhibitor or olaparib for 14 days, fixed, and stained with sulphorhodamine B. The colonies in each well were counted and normalised survival data plotted to generate a dose-response curve.

[5] = test system: parental and SHLD2 KO HCC1395 cells; experiment: Colony formation assay, HCC1395; details: SHLD2 KO vs parental HCC1395 cells, colony solubilisation protocol
Protocol: as §2, §3
as §4, with “22Rv1 viability curves were generated from the colony counts alone. MDA-MB-436 and HCC1935 viability curves were generated from solubilized colonies.” left out
The effect of a DNA polymerase theta […] inhibitor (Compound A) and the PARP inhibitor olaparib on the survival of parental and SHLD2 deleted (SHLD2 KO) HCC1395 cells was investigated by colony formation assay. Briefly, each population was seeded at low density, incubated with different concentrations of the compound and the relative survival normalized to untreated cells was measured with the colony solubilisation protocol.

[6] = non-targeting siRNA Allstar control

With `Cc1cccc(N(C)C(=O)[C@@H]2[C@H](O)CCN2c2nc(C)cc(C(F)(F)F)c2C#N)c1` [Compound A, (2S,3R)-1-(3-cyano-6-methyl-4-(trifluoromethyl)pyridin-2-yl)-3-hydroxy-N-methyl-N-(m-tolyl)pyrrolidine-2-carboxamide] the “Drug Effect (DE) Z-score” value [1, 6] was 1.0, the “Drug Effect (DE) Z-score” value ([1]; non-targeting siRNA siCON1) was 0.8 and the “Drug Effect (DE) Z-score” value ([1]; non-targeting siRNA siCON2) was 1.0. For the same molecule, the “Drug Effect (DE) Z-score” value ([1]; siRNA pool targeting REV7, 5 μM, 5 days, median of triplicate screens) was −2.88, the “sensitivity caused by siRNAs targeting FAM35A or REV7 (DE<−2)” value ([2]; BRCA1 defective RPE1 cells, 10 μM, 5 days) was “caused sensitivity” and the “Drug Effect (DE) Z-score” value [2, 6] was 1.3. The “Drug Effect (DE) Z-score” value ([2]; non-targeting siRNA siCON1) was −0.8, the “Drug Effect (DE) Z-score” value ([2]; non-targeting siRNA siCON2) was −0.6 and the “sensitivity by relative survival (colonies)” value [3] was “significantly more sensitive”. The “sensitivity by reduction in number of colonies” value [4] was “increased sensitivity” and the “sensitivity by relative survival” value [5] was “significantly more sensitive”.
